Results reported in the NIST ThermoML archive (doi:10.1021/acs.jced.7b00904).
Numbers after ± are expanded uncertainties.

Tests used:
[1] = wn = mass fraction of the nth substance listed; details: 295 K, w2 = 0
[2] = refractive index (Na D-line) (dimensionless); wn = mass fraction of the nth substance listed; details: 101.3 kPa, Liquid, Standard Abbe refractometry

O [water] + N#C[S-].[K+]
Details | surface tension liquid-gas [mN/m]
[1], Wilhelmi plate | 72.28 ± 0.4

[1], 101.3 kPa, Liquid
Details | mass density [kg/m3] | viscosity [mPa·s]
Buoyancy - hydrostatic balance | 999 ± 6 | –
Concentric cylinders viscometry | – | 0.975 ± 0.07

[2], w2 = 0
Details | refractive index
293 K | 1.3333 ± 0.00058
298 K | 1.3326 ± 0.00058
303 K | 1.3321 ± 0.00058
308 K | 1.33165 ± 0.00058
313 K | 1.33085 ± 0.00058

[I-].[Na+] [sodium iodide] + O
refractive index, [2]
Details | 296 K | 298 K
w1 = 0.332 | 1.3939 ± 0.00059 | –
w1 = 0.359 | 1.40055 ± 0.00059 | –
w1 = 0.374 | 1.4045 ± 0.00059 | –
w1 = 0.39 | 1.40905 ± 0.00059 | –
w1 = 0.408 | 1.41365 ± 0.0007 | –
w1 = 0.427 | 1.4193 ± 0.00061 | –
w1 = 0.449 | 1.426 ± 0.0006 | –
w1 = 0.46 | 1.4295 ± 0.00059 | –
w1 = 0.472 | 1.43335 ± 0.00059 | –
w1 = 0.485 | 1.4376 ± 0.00058 | –
w1 = 0.498 | 1.4421 ± 0.00058 | 1.4428 ± 0.00058
w1 = 0.512 | – | 1.44745 ± 0.00059
w1 = 0.513 | 1.44705 ± 0.00058 | –
w1 = 0.518 | – | 1.44985 ± 0.00059
w1 = 0.524 | – | 1.45195 ± 0.00059
w1 = 0.528 | 1.4523 ± 0.00059 | –
w1 = 0.53 | – | 1.45405 ± 0.00059
w1 = 0.536 | – | 1.45645 ± 0.00059
w1 = 0.543 | – | 1.45915 ± 0.0006
w1 = 0.544 | 1.4581 ± 0.00059 | –
w1 = 0.549 | – | 1.4615 ± 0.0006
w1 = 0.556 | – | 1.46395 ± 0.00058
w1 = 0.56 | 1.4648 ± 0.00059 | –
w1 = 0.563 | – | 1.4666 ± 0.00058
w1 = 0.57 | – | 1.4694 ± 0.00059
w1 = 0.577 | – | 1.4721 ± 0.00058
w1 = 0.579 | 1.472 ± 0.00058 | –
w1 = 0.585 | – | 1.4744 ± 0.00058
w1 = 0.598 | 1.4797 ± 0.00058 | –
